# “And” between values parts separate entries of the source, which are not always exact repeats. Equal values may be shown once. “Also recorded” adds a separate entry of the source.
# How the values were obtained:
# [1] = test system: Bovine aortic endothelial cells (BAEC); assay: Confocal imaging of Fe3+ with RhHPA in BAEC cells; assay type: cell-based
# Procedure: Primary cultured Bovine aortic endothelial cells (BAEC) were passaged in Endothelial Basal Medium (Lonza) containing 5% fetal bovine serum. Before the experiment, the cells were cultured to about 8th generation. For experiment preparation, the cells were routinely subcultured using 0.05% trypsin-EDTA solution. The cells were seeded on the 25 cm^2 flask and medium change every two days until a 70% confluency before transferring into disks. The cells were seeded on the 1 cm^2 disk and a medium change the next day.
# To evaluate the ability of RhHPA to capture Fe^3+ ions in cells, BAEC cells were incubated with the sensor (10 μM) for 30 min.
# BAEC cells were incubated with 10 μM of ferric chloride (FeCl3) at 37° C. for overnight, then 10 μM of RhHPA was added to BAEC cells and was incubated at 37° C. for 30 min.
# For the second control experiment, an Fe^3+-chelator SIH was added to iron-loaded and non-iron-loaded cells with RhHPA.
# BAEC cells (without Fe^3+ treatment) were treated with RhHPA, MitoTracker Green FM and LysoTracker blue DND-22. As shown in FIG. 20A to FIG. 20H, there are partial colocalization between RhHPA-Fe^3+ and the MitoTracker (FIG. 20E) as well as that between RhHPA-Fe^3+ and the LysoTracker (FIG. 20F); however, a […] colocalization was observed among RhHPA-Fe^3+, MitoTracker and LysoTracker (FIG. 20G).
# [2] = Effect of pH on fluorescence of sensor and its Fe complex; assay type: physicochemical; conditions: pH adjusted with HCl/NaOH
# [3] = test system: cells in the culture experiments; assay: Cell permeability and toxicity in the culture experiments; assay type: cell-based
# [4] = Metal ion sensing: UV-vis and fluorescence response to Fe3+ and other metal ions; conditions: one equivalent Fe^3+, ACN/Tris-HCl buffer pH 7.3
# Procedure: The spectroscopic properties of Rh-PK and its interactions with various metal ions were evaluated in acetonitrile (ACN)/Tris-HCl buffer (10 mM, pH 7.3, v/v, 3:1). […] The changes in UV-Vis spectra after the addition of various ions are shown in FIG. 2, which is an absorbance spectrum of 100 μM sensor with various metal ions (100 μM for Ni^+2, Cu^+, Cu^+2, Zn^+2, Pb, Fe^+2, Fe^+3, Cr^+3, Hg^+2, Mn^+2, Ag^+, and Co^+2; 200 μM for K^+, Na^+, Ca^2+ and Mg^2+) in the ACN/Tris buffer (10 mM, pH 7.3, v/v 3:1).
# When Fe^3+ was added into the solution of Rh-PK, a significant enhancement of fluorescence (>12-fold with 1.0 equiv of Fe^3+) was observed.
# The interferences from the other metal ions with Rh-PK in its response to Fe^3+ was examined. […] Each of the 12 metal ions was pre-incubated with Rh-PK before 1 equiv. of Fe^3+ was added, the fluorescence response was then measured.
# The stock solution of sensor and metal ions were prepared at the concentration of 1 mM. M. P. Walkees, Mutat. Res., 2003, 533, 107; M. Waisberg, et al., Toxicology, 2003, 192, 95.
# The UV-vis. and fluorescence spectra of RhHPA to various possible interfering metal ions and its selectivity for Fe^3+ were examined. See FIG. 6, which is a plot of absorbance dependent on the concentration of Fe^3+ in the range from 0 to 2 equivalents in ACN/Tris-HCl buffer (10 mM, pH 7.3, v/v 2:1); FIG. 7, which is a Job's plot between Fe^3+ and RhHPA, indicating the 1:1 binding mode for sensor and iron(III). […] Addition of Na^+, K^+, Ca^2+, Mg^2+, Cr^3+, […], Hg^2+, Cu^2+, Pb^2+, Zn^2+, Fe^2+, Co^2+, Ni^2+, and Ag^+ exerted little or no effect on the emission of RhHPA, while remarkable fluorescence enhancement was detected upon the addition of Fe^3+ by excitation of the rhodamine fluorophore at 535 nm.
# Experiments of iron(III) with other metal ions were investigated by means of the fluorescence response of RhHPA toward Fe^3+ in the presence of various other metal ions such as Na^+, K^+, Ca^2+, Mg^2+, Cr^3+, Hg^2+, Cu^2+, Pb^2+, Zn^2+, Fe^2+, Co^2+, Ni^2+, Cd^2+, and Ag^+. […] for Fe^3+ had no changes with addition of other metal ions. Cu(II) and Zn(II) increased the fluorescence intensity slightly.
# [5] = Binding studies of sensor with Fe3+ (Job's plot, titration, EDTA reversibility); conditions: 1:1 sensor-Fe^3+ complex; ACN/Tris-HCl buffer pH 7.3
# Procedure: Job's method and UV-vis spectra were applied to study the binding stoichiometry between Rh-PK and Fe^3+ and monitored by the absorbance at 555 nm. […] The binding constant of this complex was calculated following a method reported previously (G. E. Tumambac, et al., Tetrahedron 2004, 60, 11293-11297), using absorption values at […] by the equations described below, and was determined to be 1.54×10^7 […].
# The equations below was used to calculate the binding constants with stoichiometry of 1:1. L+S↔LS where L=sensor, S=Fe3+ and LS=sensor-Fe^3+ complex. The apparent binding constant is given by
# [formula] Fe is the fraction of L that formed a complex, [LS]e is concentration at equilibrium, [L]0 is the initial concentration. Au, Am, and Ac are the absorbances of solutions of L (before any Fe^3+ was added), during the titration and at saturation, respectively. The concentration of free Fe^3+ at equilibrium, [S]e, is found with the following identity. [S]e=[S]o−[LS]e=[S]o−Fc[L]o The apparent binding constant K can then be calculated from
# Reversibility experiments were carried out by adding EDTA to the complex in ACN/Tris-HCl buffer (10 mM, pH 7.3, v/v 3:1). […]
# The stoichiometry of RhHPA-Fe^3+ was measured using Job's plot and mole ratio plots methods. B. Valeur, Molecular Fluorescence: Principles and Applications, Wiley-VCH. […] To determine the binding constant of chemosensor, a fluorescence titration of different amounts of Fe^3+ into the acetonitrile solution of sensor was carried out. […] The determination of the binding constant of RhHPA was calculated using the following equation: F−Fmin=[…](Fmax−Fmin)/Kd where F is the observed fluorescence, Fmax is the maximum fluorescence for the RhHPA-Fe^3+ complex at concentration of the equal reacted between sensor and metal cation, Fmin is the fluorescence intensity for occurring RhHPA-Fe^3+.
# Absorption enhancement observation at 558 nm was plotted against the molar value of the [Fe^3+]/[Fe^3+]+RhHPA and [Fe^3+]/RhHPA. […] Binding constant of fluorescent sensor “RhHPA” was calculated and it was found as K=1.27×10^7 M^−1. […]
structure (smiles),measurement,setting,value
"CCN(CC)c1ccc2c(c1)Oc1cc(N(CC)CC)ccc1C21c2ccccc2C(=O)N1/N=C/c1cccc(CO)n1 [RhHPA, (E)-3′,6′-bis(diethylamino)-2-(((6-(hydroxymethyl)pyridin-2-yl)methylene)amino)spiro[isoindoline-1,9′-xanthen]-3-one]",increase in fluorescent intensity in Fe^3+-treated cells,"[1]; 10 μM FeCl3 overnight, then 10 μM RhHPA 30 min",~8 fold
same,fluorescence enhancement in cells,"[1]; 10 μM sensor, 30 min, no Fe^3+ supplementation",4 fold
same,"change in fluorescence signal, Fe^3+ then chelator","[1]; 20 μM Fe^3+ overnight, then 100 μM SIH, then 10 μM RhHPA, versus Fe(III) supplement",large decrease in fluorescence signal
same,change in fluorescence signal with chelator,"[1]; 100 μM SIH, non-iron-loaded cells",small decrease in fluorescence signal
same,pH range over which sensor (and Fe complex) fluorescence is stable / working pH range,[2],5-9 and 5 to 9
same,toxicity for cells,[3]; culture experiments,non-toxic
same,cell permeability,[3]; live cells in culture,excellent cell permeability; also recorded: cell permeable
same,increase in fluorescence emission intensity,[4],~20 fold
same,apparent binding constant,[5],1.27e+07 M⁻¹
